The NIST ThermoML archive (doi:10.1016/j.jct.2015.07.032)
± gives the expanded uncertainty stated by the source.

What was measured:
[1] = relative permittivity at various frequencies (dimensionless); xn = mol fraction of the nth substance listed; conditions: 100 kPa, Liquid, Frequency=1 MHz, Parallel plate capacitor
[2] = relative permittivity at various frequencies (dimensionless); conditions: 100 kPa, Liquid, Frequency=1 MHz, Parallel plate capacitor

## NC1CCCCC1 [cyclohexylamine] + CCCO
[1]; 293.15 K, x2 = 0
  relative permittivity: 4.62 ± 0.09
[1]; 293.15 K, x2 = 0.034
  relative permittivity: 4.88 ± 0.1
[1]; 293.15 K, x2 = 0.1154
  relative permittivity: 5.64 ± 0.11
[1]; 293.15 K, x2 = 0.213
  relative permittivity: 6.58 ± 0.13
[1]; 293.15 K, x2 = 0.3031
  relative permittivity: 7.66 ± 0.15
[1]; 293.15 K, x2 = 0.3996
  relative permittivity: 9.02 ± 0.18
[1]; 293.15 K, x2 = 0.4469
  relative permittivity: 9.77 ± 0.2
[1]; 293.15 K, x2 = 0.4962
  relative permittivity: 10.61 ± 0.21
[1]; 293.15 K, x2 = 0.5499
  relative permittivity: 11.61 ± 0.23
[1]; 293.15 K, x2 = 0.6056
  relative permittivity: 12.69 ± 0.25
[1]; 293.15 K, x2 = 0.6998
  relative permittivity: 14.69 ± 0.29
[1]; 293.15 K, x2 = 0.7953
  relative permittivity: 16.94 ± 0.34
[1]; 293.15 K, x2 = 0.8464
  relative permittivity: 18.08 ± 0.36
[1]; 293.15 K, x2 = 0.8913
  relative permittivity: 19.21 ± 0.38
[1]; 293.15 K, x2 = 0.9509
  relative permittivity: 20.44 ± 0.41
[1]; 293.15 K, x2 = 0.9798
  relative permittivity: 21.09 ± 0.42
[1]; 298.15 K, x2 = 0
  relative permittivity: 4.53 ± 0.09
[1]; 298.15 K, x2 = 0.034
  relative permittivity: 4.78 ± 0.1
[1]; 298.15 K, x2 = 0.1154
  relative permittivity: 5.08 ± 0.51
[1]; 298.15 K, x2 = 0.213
  relative permittivity: 6.42 ± 0.13
[1]; 298.15 K, x2 = 0.3031
  relative permittivity: 7.46 ± 0.15
[1]; 298.15 K, x2 = 0.3996
  relative permittivity: 8.76 ± 0.18
[1]; 298.15 K, x2 = 0.4469
  relative permittivity: 9.48 ± 0.19
[1]; 298.15 K, x2 = 0.4962
  relative permittivity: 10.29 ± 0.21
[1]; 298.15 K, x2 = 0.5499
  relative permittivity: 11.25 ± 0.23
[1]; 298.15 K, x2 = 0.6056
  relative permittivity: 12.29 ± 0.25
[1]; 298.15 K, x2 = 0.6998
  relative permittivity: 14.24 ± 0.28
[1]; 298.15 K, x2 = 0.7953
  relative permittivity: 16.43 ± 0.33
[1]; 298.15 K, x2 = 0.8464
  relative permittivity: 17.54 ± 0.35
[1]; 298.15 K, x2 = 0.8913
  relative permittivity: 18.71 ± 0.37
[1]; 298.15 K, x2 = 0.9509
  relative permittivity: 19.85 ± 0.4
[1]; 298.15 K, x2 = 0.9798
  relative permittivity: 20.41 ± 0.41
[1]; 303.15 K, x2 = 0
  relative permittivity: 4.45 ± 0.09
[1]; 303.15 K, x2 = 0.034
  relative permittivity: 4.68 ± 0.09
[1]; 303.15 K, x2 = 0.1154
  relative permittivity: 5.37 ± 0.11
[1]; 303.15 K, x2 = 0.213
  relative permittivity: 6.26 ± 0.13
[1]; 303.15 K, x2 = 0.3031
  relative permittivity: 7.26 ± 0.15
[1]; 303.15 K, x2 = 0.3996
  relative permittivity: 8.5 ± 0.17
[1]; 303.15 K, x2 = 0.4469
  relative permittivity: 9.19 ± 0.18
[1]; 303.15 K, x2 = 0.4962
  relative permittivity: 9.97 ± 0.2
[1]; 303.15 K, x2 = 0.5499
  relative permittivity: 10.89 ± 0.22
[1]; 303.15 K, x2 = 0.6056
  relative permittivity: 11.9 ± 0.24
[1]; 303.15 K, x2 = 0.6998
  relative permittivity: 13.79 ± 0.28
[1]; 303.15 K, x2 = 0.7953
  relative permittivity: 15.92 ± 0.32
[1]; 303.15 K, x2 = 0.8464
  relative permittivity: 17.01 ± 0.34
[1]; 303.15 K, x2 = 0.8913
  relative permittivity: 18.14 ± 0.36
[1]; 303.15 K, x2 = 0.9509
  relative permittivity: 19.21 ± 0.38
[1]; 303.15 K, x2 = 0.9798
  relative permittivity: 19.77 ± 0.4

## CCCO [propan-1-ol]
[2]; 293.15 K
  relative permittivity: 21.23 ± 0.42
[2]; 298.15 K
  relative permittivity: 20.54 ± 0.41
[2]; 303.15 K
  relative permittivity: 19.84 ± 0.4

## NC1CCCCC1 [cyclohexylamine] + CCCCCCCCCCO
[1]; 293.15 K, x2 = 0
  relative permittivity: 4.62 ± 0.09
[1]; 293.15 K, x2 = 0.0561
  relative permittivity: 4.87 ± 0.1
[1]; 293.15 K, x2 = 0.1027
  relative permittivity: 5.05 ± 0.1
[1]; 293.15 K, x2 = 0.2012
  relative permittivity: 5.4 ± 0.11
[1]; 293.15 K, x2 = 0.2947
  relative permittivity: 5.73 ± 0.11
[1]; 293.15 K, x2 = 0.4077
  relative permittivity: 6.09 ± 0.12
[1]; 293.15 K, x2 = 0.5107
  relative permittivity: 6.42 ± 0.13
[1]; 293.15 K, x2 = 0.5522
  relative permittivity: 6.56 ± 0.13
[1]; 293.15 K, x2 = 0.604
  relative permittivity: 6.72 ± 0.13
[1]; 293.15 K, x2 = 0.6528
  relative permittivity: 6.88 ± 0.14
[1]; 293.15 K, x2 = 0.697
  relative permittivity: 7.02 ± 0.14
[1]; 293.15 K, x2 = 0.7474
  relative permittivity: 7.2 ± 0.14
[1]; 293.15 K, x2 = 0.7859
  relative permittivity: 7.34 ± 0.15
[1]; 293.15 K, x2 = 0.8348
  relative permittivity: 7.54 ± 0.15
[1]; 293.15 K, x2 = 0.8915
  relative permittivity: 7.81 ± 0.16
[1]; 293.15 K, x2 = 0.942
  relative permittivity: 8.08 ± 0.16
[1]; 298.15 K, x2 = 0
  relative permittivity: 4.53 ± 0.09
[1]; 298.15 K, x2 = 0.0561
  relative permittivity: 4.78 ± 0.1
[1]; 298.15 K, x2 = 0.1027
  relative permittivity: 4.95 ± 0.1
[1]; 298.15 K, x2 = 0.2012
  relative permittivity: 5.29 ± 0.11
[1]; 298.15 K, x2 = 0.2947
  relative permittivity: 5.6 ± 0.11
[1]; 298.15 K, x2 = 0.4077
  relative permittivity: 5.95 ± 0.12
[1]; 298.15 K, x2 = 0.5107
  relative permittivity: 6.26 ± 0.13
[1]; 298.15 K, x2 = 0.5522
  relative permittivity: 6.38 ± 0.13
[1]; 298.15 K, x2 = 0.604
  relative permittivity: 6.53 ± 0.13
[1]; 298.15 K, x2 = 0.6528
  relative permittivity: 6.68 ± 0.13
[1]; 298.15 K, x2 = 0.697
  relative permittivity: 6.81 ± 0.14
[1]; 298.15 K, x2 = 0.7474
  relative permittivity: 6.97 ± 0.14
[1]; 298.15 K, x2 = 0.7859
  relative permittivity: 7.09 ± 0.14
[1]; 298.15 K, x2 = 0.8348
  relative permittivity: 7.27 ± 0.15
[1]; 298.15 K, x2 = 0.8915
  relative permittivity: 7.51 ± 0.15
[1]; 298.15 K, x2 = 0.942
  relative permittivity: 7.73 ± 0.15
[1]; 303.15 K, x2 = 0
  relative permittivity: 4.45 ± 0.09
[1]; 303.15 K, x2 = 0.0561
  relative permittivity: 4.69 ± 0.09
[1]; 303.15 K, x2 = 0.1027
  relative permittivity: 4.85 ± 0.1
[1]; 303.15 K, x2 = 0.2012
  relative permittivity: 5.19 ± 0.1
[1]; 303.15 K, x2 = 0.2947
  relative permittivity: 5.49 ± 0.11
[1]; 303.15 K, x2 = 0.4077
  relative permittivity: 5.82 ± 0.12
[1]; 303.15 K, x2 = 0.5107
  relative permittivity: 6.11 ± 0.12
[1]; 303.15 K, x2 = 0.5522
  relative permittivity: 6.22 ± 0.12
[1]; 303.15 K, x2 = 0.604
  relative permittivity: 6.36 ± 0.13
[1]; 303.15 K, x2 = 0.6528
  relative permittivity: 6.5 ± 0.13
[1]; 303.15 K, x2 = 0.697
  relative permittivity: 6.61 ± 0.13
[1]; 303.15 K, x2 = 0.7474
  relative permittivity: 6.76 ± 0.14
[1]; 303.15 K, x2 = 0.7859
  relative permittivity: 6.87 ± 0.14
[1]; 303.15 K, x2 = 0.8348
  relative permittivity: 7.02 ± 0.14
[1]; 303.15 K, x2 = 0.8915
  relative permittivity: 7.22 ± 0.14
[1]; 303.15 K, x2 = 0.942
  relative permittivity: 7.41 ± 0.15

## CCCO [propan-1-ol] + NC1CCCCC1
[1]; 293.15 K, x1 = 1
  relative permittivity: 21.23 ± 0.42
[1]; 298.15 K, x1 = 1
  relative permittivity: 20.54 ± 0.41
[1]; 303.15 K, x1 = 1
  relative permittivity: 19.84 ± 0.4
